Where a SMILES comes first, the peptide text is derived from it. Bridges are numbered along the chain shown (N, C = ends). [ ]: non-standard residue; d: D form. The star is where a group is joined. NαAmidinoTrp = N=C(N)N[C@@H](Cc1c[nH]c2ccccc12)C(=O)*; Ala(cPent) = N[C@@H](CC1CCCC1)C(=O)O; Pen = CC(C)(S)[C@H](N)C(=O)O; Tle = CC(C)(C)[C@H](N)C(=O)O; dNle = CCCC[C@@H](N)C(=O)O; dDab = NCC[C@@H](N)C(=O)O; Nle = CCCC[C@H](N)C(=O)O; Orn = NCCC[C@H](N)C(=O)O; Dab = NCC[C@H](N)C(=O)O; Sar = CNCC(=O)O
Columns and labels:
Assay type in all cases: cell-based
[1] = test system: Escherichia coli ATCC 25922; conditions: ATCC 25922
Experimental: (§1) Lyophilized peptides were weighed on a Microbalance (Mettler MT5) and dissolved in sterile water to a final concentration of 1 mg/mL. Stock solutions were kept at +4° C., light protected.
(§2) The in vitro antimicrobial activities of the peptides were determined in 96-well plates (Greiner, polystyrene) by the standard CLSI broth microdilution method (Clinical and Laboratory Standards Institute 2014. Performance standards for antimicrobial susceptibility testing, 24th informational supplement. Approved standard CLSI M100-S24; Clinical and Laboratory Standards Institute, Wayne, Pa.). Inocula of the microorganisms were diluted into Mueller-Hinton II (MH-cation adjusted) broth and compared with a 0.5 McFarland standard to give appr. 10^6 colony forming units (CFU)/mL. Aliquots (90 μL) of inoculate were added to 10 μL of MH-II broth+P-80 (Polysorbate 80, 0.002% final concentration, v/v) containing the peptide in serial two-fold dilutions. The following microorganisms were used to determine antibiotic activity of the peptides: Escherichia coli ATCC 25922, Klebsiella pneumoniae SSI #3010^a), Acinetobacter baumannii DSM 30008, Pseudomonas aeruginosa ATCC 27853 and the clinical isolates Escherichia coli 926415^b), Klebsiella pneumoniae 968733^b) and Acinetobacter baumannii 872842^b). Antimicrobial activities of the peptides were expressed as the minimal inhibitory concentration (MIC) in μg/mL at which no visible growth was observed after 18-20 hours of incubation at 35° C. ^a) Obtained from Statens Serum Institut (SSI), Copenhagen, Denmark^b) Obtained from International Health Management Associates, Inc. (IHMA Europe Sàrl), Epalinges, Switzerland

[2] = test system: Klebsiella pneumoniae SSI #3010; conditions: SSI #3010
Experimental: as §1, §2

[3] = test system: Acinetobacter baumannii DSM 30008; conditions: DSM 30008
Experimental: as §1, §2

[4] = test system: Pseudomonas aeruginosa ATCC 27853; conditions: ATCC 27853
Experimental: as §1, §2

[5] = test system: human red blood cells (hRBC); assay: Hemolysis of human red blood cells; conditions: red cells of human, 1 h
Experimental: as §1
The peptides were tested for their hemolytic activity against human red blood cells (hRBC). Fresh hRBC were washed three times with phosphate buffered saline (PBS) and centrifuged for 10 min at 2000×g. Compounds (100 μg/mL) were incubated with 20% hRBC (v/v) for 1 h at 37° C. and shaking at 300 rpm. The final erythrocyte concentration was approximately 0.9×10^9 cells/mL. A value of 0% and 100% cell lyses, respectively, was determined by incubation of hRBC in the presence of PBS containing 0.001% acetic acid and 2.5% Triton X-100 in H2O, respectively. The samples were centrifuged, the supernatants were 8-fold diluted in PBS buffer and the optical densities (OD) were measured at 540 nm. The 100% lyses value (OD540H2O) gave an OD540 of approximately 0.5-1.0.
Percent hemolysis was calculated as follows: (OD540peptide/OD540H2O)×100%.

| Compound | Escherichia coli ATCC 25922 MIC [1] [µg/mL] | Klebsiella pneumoniae SSI #3010 MIC [2] [µg/mL] | Acinetobacter baumannii DSM 30008 MIC [3] [µg/mL] | Pseudomonas aeruginosa ATCC 27853 MIC [4] [µg/mL] | Hemolysis at 100 μg/mL ([5]; 100 μg/mL) [%] | Hemolysis at 100 μg/mL [5]; 100 [%] |
| --- | --- | --- | --- | --- | --- | --- |
| CC(C)C[C@@H]1NC(=O)[C@@H](CC(C)C)NC(=O)[C@H](CCN)NC(=O)[C@@H](NC(=O)[C@H](CCN)NC(=O)[C@@H](NC(=O)[C@H](CCN)NC(=O)CNC(=O)[C@H]2NC(=O)[C@H](Cc3ccc(O)cc3)NC(=O)[C@H](CO)NC(=O)[C@H](CC(C)C)NC(=O)[C@@H]3CCCN3C(=O)[C@H]3CCCN3C(=O)[C@H](CO)NC(=O)[C@H](C)NC(=O)[C@H](C(C)C)NC(=O)[C@@H](NC(=O)[C@H](Cc3c[nH]c4ccccc34)NC(=N)N)C(C)(C)SSC2(C)C)[C@@H](C)O)CCNC(=O)[C@H]([C@@H](C)O)NC(=O)[C@H](CCN)NC(=O)[C@H](CCN)NC1=O [Ex. 174] (NαAmidinoTrp-[Pen]VAS[dP]PLSY[Pen]G[Dab]T[Dab][Dab][Dab][dL]L[Dab][Dab]T; disulfide 1-10; lactam 15-C) | 0.25 | 0.5 | 0.5 | 2 | 1 | – |
| CC(C)C[C@@H]1NC(=O)[C@@H](CC(C)C)NC(=O)[C@H](CCN)NC(=O)[C@@H](NC(=O)[C@H](CCN)NC(=O)[C@@H](NC(=O)[C@H](CCN)NC(=O)CN(C)C(=O)[C@@H]2CSSC[C@H](NC(=O)[C@@H](N)Cc3c[nH]c4ccccc34)C(=O)N[C@@H](C(C)C)C(=O)N[C@@H](C)C(=O)N[C@@H](CO)C(=O)N3CCC[C@@H]3C(=O)N3CCC[C@H]3C(=O)N[C@@H](CC(C)C)C(=O)N[C@@H](CO)C(=O)N[C@@H](Cc3ccc(O)cc3)C(=O)N2)[C@@H](C)O)CCNC(=O)[C@@H](C(C)C)NC(=O)[C@H](CCN)NC(=O)[C@H](CCN)NC1=O [Ex. 180] (H-WCVAS[dP]PLSYC[Sar][Dab]T[Dab][Dab][Dab][dL]L[Dab][Dab][dV]; disulfide 2-11; lactam 16-C) | 0.125 | 0.125 | 0.25 | 1 | <1 | – |
| CC(C)C[C@@H]1NC(=O)[C@@H](CC(C)C)NC(=O)[C@H](CCN)NC(=O)[C@@H](NC(=O)[C@H](CCN)NC(=O)[C@@H](NC(=O)[C@H](CCN)NC(=O)CN(C)C(=O)[C@@H]2CSSC[C@H](NC(=O)[C@@H](N)Cc3c[nH]c4ccccc34)C(=O)N[C@@H](C(C)C)C(=O)N[C@@H](C)C(=O)N[C@@H](CO)C(=O)N3CCC[C@@H]3C(=O)N3CCC[C@H]3C(=O)N[C@@H](CC(C)C)C(=O)N[C@@H](CO)C(=O)N[C@@H](Cc3ccc(O)cc3)C(=O)N2)[C@@H](C)O)CCNC(=O)[C@H](CCCNC(=N)N)NC(=O)[C@H](CCN)NC(=O)[C@H](CCN)NC1=O [Ex. 181] (H-WCVAS[dP]PLSYC[Sar][Dab]T[Dab][Dab][Dab][dL]L[Dab][Dab]R; disulfide 2-11; lactam 16-C) | 0.0625 | 0.125 | 0.125 | 0.5 | <1 | – |
| CC(C)C[C@@H]1NC(=O)[C@@H](CC(C)C)NC(=O)[C@H](CCN)NC(=O)[C@@H](NC(=O)[C@H](CCN)NC(=O)[C@@H](NC(=O)[C@H](CCN)NC(=O)CN(C)C(=O)[C@@H]2CSSC[C@H](NC(=O)[C@@H](N)Cc3c[nH]c4ccccc34)C(=O)N[C@@H](C(C)C)C(=O)N[C@@H](C)C(=O)N[C@@H](CO)C(=O)N3CCC[C@@H]3C(=O)N3CCC[C@H]3C(=O)N[C@@H](CC(C)C)C(=O)N[C@@H](CO)C(=O)N[C@@H](Cc3ccc(O)cc3)C(=O)N2)[C@@H](C)O)CCNC(=O)[C@@H](CCCNC(=N)N)NC(=O)[C@H](CCN)NC(=O)[C@H](CCN)NC1=O [Ex. 182] (H-WCVAS[dP]PLSYC[Sar][Dab]T[Dab][Dab][Dab][dL]L[Dab][Dab][dR]; disulfide 2-11; lactam 16-C) | 0.5 | 0.5 | 0.75 | 4 | 1 | – |
| CC(C)C[C@@H]1NC(=O)[C@@H](Cc2ccccc2)NC(=O)[C@H](CCN)NC(=O)[C@@H](NC(=O)[C@H](CCN)NC(=O)[C@H](CCCN)NC(=O)[C@@H]2CSSC[C@H](NC(=O)[C@H](Cc3c[nH]c4ccccc34)NC(=O)CN)C(=O)N[C@@H](C(C)(C)C)C(=O)N[C@@H](C)C(=O)N[C@@H](CO)C(=O)N3CCC[C@@H]3C(=O)N3CCC[C@H]3C(=O)N[C@@H](CC3CCCC3)C(=O)N[C@@H](CO)C(=O)N[C@@H](Cc3ccc(O)cc3)C(=O)N2)CCNC(=O)[C@H]([C@@H](C)O)NC(=O)[C@H](CCN)NC(=O)[C@H](CCN)NC1=O [Ex. 183] (H-GWC[Tle]AS[dP]P[Ala(cPent)]SYC[Orn][Dab][Dab][Dab][dF]L[Dab][Dab]T; disulfide 3-12; lactam 15-C) | 0.125 | 0.125 | 0.25 | 0.5 | 2 | – |
| CCCC[C@@H]1NC(=O)[C@@H]2CCCN2C(=O)[C@H]2CCCN2C(=O)[C@H](CO)NC(=O)[C@H](C)NC(=O)[C@H](C(C)(C)C)NC(=O)[C@@H](NC(=O)[C@@H](N)Cc2c[nH]c3ccccc23)CCNC(=O)C[C@@H](C(=O)N[C@@H](CCCN)C(=O)N[C@@H](CCN)C(=O)N[C@H]2CCNC(=O)[C@H]([C@@H](C)O)NC(=O)[C@H](CCN)NC(=O)[C@H](CCN)NC(=O)[C@H](CC(C)C)NC(=O)[C@@H](Cc3ccccc3)NC(=O)[C@H](CCN)NC2=O)NC(=O)[C@H](Cc2ccc(O)cc2)NC(=O)[C@H](CO)NC1=O [Ex. 190] (H-W[Dab][Tle]AS[dP]P[Nle]SYD[Orn][Dab][Dab][Dab][dF]L[Dab][Dab]T; lactam 2-11, 14-C) | 0.5 | 0.5 | 0.5 | 1 | – | <1 |
| CCCC[C@@H]1NC(=O)[C@@H]2CCCN2C(=O)[C@H]2CCCN2C(=O)[C@H](CO)NC(=O)[C@H](C)NC(=O)[C@H](C(C)(C)C)NC(=O)[C@@H](NC(=O)[C@@H](N)Cc2c[nH]c3ccccc23)CSSC[C@@H](C(=O)N[C@@H](CCCN)C(=O)N[C@@H](CCN)C(=O)N[C@H]2CCNC(=O)[C@H]([C@@H](C)O)NC(=O)[C@H](CCN)NC(=O)[C@H](CCN)NC(=O)[C@H](CC(C)C)NC(=O)[C@@H](CCCC)NC(=O)[C@H](CCN)NC2=O)NC(=O)[C@H](Cc2ccc(O)cc2)NC(=O)[C@H](CO)NC1=O [Ex. 192] (H-WC[Tle]AS[dP]P[Nle]SYC[Orn][Dab][Dab][Dab][dNle]L[Dab][Dab]T; disulfide 2-11; lactam 14-C) | 0.25 | 0.25 | 0.25 | 2 | 5 | – |
| CCCC[C@@H]1NC(=O)[C@@H]2CCCN2C(=O)[C@H]2CCCN2C(=O)[C@H](CO)NC(=O)[C@H](C)NC(=O)[C@H](C(C)(C)C)NC(=O)[C@H](CCN)NC(=O)[C@H](Cc2c[nH]c3ccccc23)NC(=O)[C@@H](N)CSSC[C@@H](C(=O)N[C@H](CCN)C(=O)N[C@H]2CCNC(=O)[C@H]([C@@H](C)O)NC(=O)[C@H](CCN)NC(=O)[C@H](CCN)NC(=O)[C@H](CC(C)C)NC(=O)[C@@H](CC(C)C)NC(=O)[C@H](CCN)NC2=O)NC(=O)[C@H](CCCN)NC(=O)[C@H](CCN)NC(=O)[C@H](Cc2ccc(O)cc2)NC(=O)[C@H](CO)NC1=O [Ex. 195] (H-CW[Dab][Tle]AS[dP]P[Nle]SY[Dab][Orn]C[dDab][Dab][Dab][dL]L[Dab][Dab]T; disulfide 1-14; lactam 16-C) | 0.125 | 0.125 | 0.5 | 1 | <1 | – |
